The test concerns BDF1 mice, B16 melanoma ip, median survival T/C. Kind of test: NCI In Vivo Anticancer Drug Screen. Data for tumor model B16 Melanoma (intraperitoneal) in B6D2F1 (BDF1) mice. Conditions: endpoint: median survival time, higher = longer survival. The essentials:
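Read-out: survival or tumor size, given as treated/control ratio. Controls received vehicle only; animals bore transplantable tumors.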

[1] abbreviates: dose: 100.0 mg/kg/injection, schedule: Q04DX003 (ip), vehicle: Klucel (hydroxypropylcellulose) (HPC).
Setting [2] is: dose: 50.0 mg/kg/injection, schedule: Q01DX009 (ip), vehicle: Klucel (hydroxypropylcellulose) (HPC).
Where [3] appears, read: dose: 100.0 mg/kg/injection, schedule: Q01DX009 (ip), vehicle: Klucel (hydroxypropylcellulose) (HPC).
Setting [4] is: dose: 200.0 mg/kg/injection, schedule: Q01DX009 (ip), vehicle: Klucel (hydroxypropylcellulose) (HPC).
Setting [5] is: dose: 400.0 mg/kg/injection, schedule: Q01DX009 (ip), vehicle: Klucel (hydroxypropylcellulose) (HPC).
The mark [6] stands for this setting: dose: 25.0 mg/kg/injection, schedule: Q01DX009 (ip), vehicle: Klucel (hydroxypropylcellulose) (HPC).
The mark [7] stands for this setting: dose: 25.0 mg/kg/injection, schedule: Q01DX009 (ip), vehicle: saline with Tween-80.
Setting [8] is: dose: 50.0 mg/kg/injection, schedule: Q01DX009 (ip), vehicle: saline with Tween-80.
Where [9] appears, read: dose: 12.5 mg/kg/injection, schedule: Q01DX009 (ip), vehicle: Klucel (hydroxypropylcellulose) (HPC).

Values joined by “and” are separate entries in the source; they are usually repeats but may differ in a detail not shown here. Equal entries are not always repeated. Inconclusive results and toxic doses are left out.

Turning to `CN(N=O)C(=O)N[C@@H](C=O)[C@@H](O)[C@H](O)[C@H](O)CO`, the T/C reads like this: (dose: 12.5 mg/kg/injection, schedule: Q01DX009 (ip), vehicle: citric acid) 105 % of control; (dose: 12.5 mg/kg/injection, schedule: Q01DX009 (ip), vehicle: other) 109 % of control and 117 % of control (2×); (dose: 25.0 mg/kg/injection, schedule: Q01DX009 (ip), vehicle: citric acid) 106 % of control; (dose: 25.0 mg/kg/injection, schedule: Q01DX009 (ip), vehicle: other) 105 % of control and 118 % of control and 124 % of control; (dose: 37.5 mg/kg/injection, schedule: Q04DX003 (ip), vehicle: saline) 90 % of control and 115 % of control; (dose: 50.0 mg/kg/injection, schedule: Q01DX009 (ip), vehicle: citric acid) 117 % of control. The T/C by setting is: (dose: 75.0 mg/kg/injection, schedule: Q04DX003 (ip), vehicle: saline) 118 % of control; (dose: 150.0 mg/kg/injection, schedule: Q04DX003 (ip), vehicle: saline) 116 % of control; (dose: 300.0 mg/kg/injection, schedule: Q04DX003 (ip), vehicle: saline) 45 % of control and 118 % of control.

For the compound `O=C(/C=C(\C(=O)c1ccccc1)c1ccccc1)c1ccccc1`, the T/C is, setting by setting: under setting [1], 100 % of control; (dose: 200.0 mg/kg/injection, schedule: Q04DX003 (ip), vehicle: Klucel (hydroxypropylcellulose) (HPC)) 100 % of control; (dose: 400.0 mg/kg/injection, schedule: Q04DX003 (ip), vehicle: Klucel (hydroxypropylcellulose) (HPC)) 103 % of control.

In the case of `CC1CCC2(OC1)OC1CC3C4CCC5CC(O)CCC5(C)C4CCC3(C)C1C2C` (stereo not given), the T/C (dose: 10.0 mg/kg/injection, schedule: Q01DX009 (ip), vehicle: Klucel (hydroxypropylcellulose) (HPC)) is 99 % of control; the T/C (dose: 20.0 mg/kg/injection, schedule: Q01DX009 (ip), vehicle: Klucel (hydroxypropylcellulose) (HPC)) is 97 % of control; the T/C (dose: 40.0 mg/kg/injection, schedule: Q01DX009 (ip), vehicle: Klucel (hydroxypropylcellulose) (HPC)) is 95 % of control.

In the case of `CC(=O)O[C@H]1[C@H]2O[C@]23[C@@H]2CC[C@@H]4C[C@@H](O)CC[C@]4(C)[C@H]2CC[C@]3(C)[C@H]1c1ccc(=O)oc1`, the T/C is 92 % of control (dose: 3.75 mg/kg/injection, schedule: Q01DX009 (ip), vehicle: saline with Tween-80) and 90 % of control (dose: 7.5 mg/kg/injection, schedule: Q01DX009 (ip), vehicle: saline with Tween-80).

Regarding `Cc1cc([NH-])c([NH-])cc1C.[Cl][Pt+2][Cl]`, the T/C (dose: 1.25 mg/kg/injection, schedule: Q01DX009 (ip), vehicle: saline with Tween-80) was 108 % of control; the T/C (dose: 2.5 mg/kg/injection, schedule: Q01DX009 (ip), vehicle: saline with Tween-80) is 123 % of control; the T/C (dose: 10.0 mg/kg/injection, schedule: Q01DX009 (ip), vehicle: saline with Tween-80) is 161 % of control.

In the case of `CCCN1CSC(=S)N(CCC)C1`, the T/C reads like this: under setting [2], 89 % of control; under setting [3], 102 % of control; under setting [4], 102 % of control.

In the case of `CCC(C)(O)CCc1ccccc1` (stereo not given), the T/C was 113 % of control under setting [3], 113 % of control under setting [4] and 100 % of control under setting [5].

`CNCCCN(C)CCCNC`: the T/C reads like this: (dose: 6.25 mg/kg/injection, schedule: Q01DX009 (ip), vehicle: saline) 121 % of control; (dose: 12.5 mg/kg/injection, schedule: Q01DX009 (ip), vehicle: saline) 109 % of control; (dose: 25.0 mg/kg/injection, schedule: Q01DX009 (ip), vehicle: saline) 96 % of control and 111 % of control.

Turning to `Cc1ccc(SSc2ccc(C)cc2[N+](=O)[O-])c([N+](=O)[O-])c1`, the T/C is 100 % of control under setting [6]; 89 % of control under setting [2]; 86 % of control and 93 % of control under setting [3].

Regarding `Cn1c(C(Cl)Cl)nc2ccccc2c1=O`, the T/C reads like this: (dose: 12.5 mg/kg/injection, schedule: Q01DX009 (ip), vehicle: saline with Tween-80) 110 % of control; under setting [7], 105 % of control; under setting [8], 105 % of control.

With `CCOc1ccc2nc(Cl)sc2c1`, under setting [1], the T/C is 105 % of control.

For `Cc1c2ccnc(C(N)=O)c2c(C)c2c1[nH]c1ccccc12`, the T/C (dose: 100.0 mg/kg/injection, schedule: Q04DX003 (ip), vehicle: distilled water + Tween-80) was 100 % of control and the T/C (dose: 200.0 mg/kg/injection, schedule: Q04DX003 (ip), vehicle: distilled water + Tween-80) was 114 % of control.

Take `CC(N)CCc1ccccc1` (stereo not given): the T/C reads like this: (dose: 12.5 mg/kg/injection, schedule: Q04DX003 (ip), vehicle: saline) 100 % of control; (dose: 25.0 mg/kg/injection, schedule: Q04DX003 (ip), vehicle: saline) 108 % of control; (dose: 50.0 mg/kg/injection, schedule: Q04DX003 (ip), vehicle: saline) 111 % of control.

For the compound `O=C1Nc2ccccc2/C1=C\c1ccccc1O`, the T/C reads like this: (dose: 1.56 mg/kg/injection, schedule: Q01DX009 (ip), vehicle: Klucel (hydroxypropylcellulose) (HPC)) 106 % of control; (dose: 3.12 mg/kg/injection, schedule: Q01DX009 (ip), vehicle: Klucel (hydroxypropylcellulose) (HPC)) 106 % of control; (dose: 6.25 mg/kg/injection, schedule: Q01DX009 (ip), vehicle: Klucel (hydroxypropylcellulose) (HPC)) 91 % of control; under setting [9], 105 % of control; under setting [6], 89 % of control.

On to `Cc1cccc(NC(=O)c2cccc(C(=O)Nc3cccc(C)c3C)c2)c1C`, for which the T/C was 100 % of control under setting [3], 90 % of control under setting [4] and 86 % of control under setting [5].

For `CCSCCNC(=O)[C@@]1(O)[C@H](O)[C@]2(CC)C=CCN3CC[C@@]4(c5cc([C@@]6(OC(C)=O)C[C@H]7C=C(CC)CN(CCc8c6[nH]c6ccccc86)C7)c(OC)cc5N(C)[C@@H]14)[C@@H]32`, the T/C runs as follows: (dose: 0.13 mg/kg/injection, schedule: Q01DX009 (ip), vehicle: water) 100 % of control; (dose: 0.25 mg/kg/injection, schedule: Q01DX009 (ip), vehicle: water) 115 % of control; (dose: 0.5 mg/kg/injection, schedule: Q01DX009 (ip), vehicle: water) 120 % of control; (dose: 1.0 mg/kg/injection, schedule: Q01DX009 (ip), vehicle: water) 155 % of control; (dose: 2.0 mg/kg/injection, schedule: Q01DX009 (ip), vehicle: water) 162 % of control.

On to `Nc1ccc(OCc2ccccc2)cc1`, for which, under setting [7], the T/C was 109 % of control.

For `BrCc1ccc2c3c(ccc(CBr)c13)CC2`, the T/C under setting [9] was 103 % of control; the T/C under setting [6] was 98 % of control; the T/C under setting [2] was 96 % of control; the T/C under setting [8] is 112 % of control; the T/C under setting [3] was 100 % of control; the T/C (dose: 100.0 mg/kg/injection, schedule: Q01DX009 (ip), vehicle: saline with Tween-80) is 122 % of control. The T/C is, setting by setting: (dose: 100.0 mg/kg/injection, schedule: Q04DX003 (ip), vehicle: saline with Tween-80) 107 % of control; (dose: 200.0 mg/kg/injection, schedule: Q01DX009 (ip), vehicle: saline with Tween-80) 95 % of control; (dose: 200.0 mg/kg/injection, schedule: Q04DX003 (ip), vehicle: saline with Tween-80) 112 % of control; (dose: 400.0 mg/kg/injection, schedule: Q04DX003 (ip), vehicle: saline with Tween-80) 105 % of control.

Regarding `C=C1[C@@H](O)[C@]2(O)OC[C@@]34[C@H]1[C@@H](OC(=O)C(C)CC)C(=O)O[C@@H]3C[C@H]1C(C)=CC(=O)[C@@H](O)[C@]1(C)[C@@H]24` (stereo not given in full), the T/C (dose: 0.5 mg/kg/injection, schedule: Q01DX009 (ip), vehicle: saline with Tween-80) was 116 % of control and the T/C (dose: 1.0 mg/kg/injection, schedule: Q01DX009 (ip), vehicle: saline with Tween-80) was 118 % of control.

In the case of `Cc1cc(Cl)ccc1NC(=O)c1ccccc1`, the T/C is 103 % of control under setting [3], 99 % of control under setting [4] and 100 % of control under setting [5].
